The values below come from patent publication US20050148034A1, “Methods for identification of modulators of angiogenesis, compounds discovered thereby, and methods of treatment using the compounds” (priority 2002, published 2005).

This data set relates to human umbilical cord vessel rings. Nature of the data set: Human angiogenesis assay (umbilical artery vessel rings in Matrigel). The following applies: for Microvessel Growth (% Inhibition): vs 0.1% DMSO, three weeks, average of two rings. It counts as cell-based. The text has this: Fresh human umbilical cords were collected by trained medical personnel under fill donor informed consent from local hospitals. The cords were transported and treated within three hours. Umbilical cords and vessel lumens were rinsed with chilled basal nutrient medium. The artery was removed from the cord using mechanical means, forceps and small surgical scissors in an aseptic field. The vessel was cleaned of connective tissue and vessel rings were cut cross-wise in a length of 1 mm. The rings were placed into EGM-2 medium (Clonetics Corp.) in a 50 ml conical bottom tube and stored at 4° C. Six-well tissue culture plates were covered with […] of Matrigel and allowed to gel for 30-45 min at 37° C., under 5% CO2. The vessel rings were rinsed in EGM-2 medium and placed on the Matrigel-coated wells, covered with additional 250 μl Matrigel, and allowed to gel for 30-45 min at 37° C. (see FIG. 6). The vessels were cultured for 24 hours in 4 ml of EGM-2 to allow the tissue to adapt to its new environment. After 24 hours incubation, the rings were treated either with 0.1% DMSO as control, or different concentrations of compounds (thalidomide or CC4047). Culture medium was changed twice per week for total of three weeks.
The effects of compounds on cultured vessel rings were compared with the effect of DMSO on vessel rings. The results were analyzed using Image-Pro® Plus software (MediaCybernetics, Inc. Carlsbad, Calif.).
These experiments were done in duplicates and the results are the average of two rings in same experiment. A different concentration of Fumagillin is used as positive control in this experiment.

Structures are written as SMILES.

Regarding `O=C1CCC(N2C(=O)c3ccccc3C2=O)C(=O)N1` (centres unmarked) [Thalomid, thalidomide, reference compound], the “Microvessel Growth (% Inhibition)” value is listed as 40 % Inhibition (0..1 μM), 81.4 % Inhibition (1 μM) and 100 % Inhibition (10 μM). Further, the “formation of microvessel outgrowth” value (compared with DMSO treated samples) is “inhibited the formation of microvessel outgrowth in a dose dependent manner”. In addition, the “need of microsomes for activity” value (human ring assay, compared with rat ring results) was “no need for either human or rabbit microsome”.
